Like-named read-outs stand apart in the source and are kept apart here.
Legend:
Assay type in all cases: cell-based
[1] = molecular target: T1, GLP-1R (Homo sapiens, UniProt P43220); experiment: GLP-1 activity test (cAMP, chemiluminescence)
T1 construct: expressed in transfected cells; host or cells: CHO-K1
Procedure: (§1) Upon stimulation by a specific agonist, GLP-1R activates the intracellular adenylate cyclase signaling pathway, resulting in an increase in cAMP levels and ultimately leading to insulin production and secretion. A cell line stably transfected with GLP-1R was stimulated with test compounds, thereby rapidly increasing intracellular cAMP levels. The relative luminescence units (RLU) of cells stimulated at various concentrations were measured by a chemiluminescence method, and the EC50 value of the agonist was calculated accordingly. This activity test method is currently a commonly used method for evaluating GLP-1 receptor agonist activity both domestically and internationally. A CHO-K1 cell line stably expressing GLP-1R was used. The stable cells were stimulated with agonists at different concentrations, and the relative luminescence units after stimulation at each concentration were measured to calculate the EC50 value of the agonist.

[2] = molecular target: T2, GCG-R (Homo sapiens, UniProt P47871); experiment: GCG activity test (cAMP, chemiluminescence)
T2 construct: expressed in transfected cells; host or cells: CHO-K1
T2 sequence (P47871 26-477, species assumed): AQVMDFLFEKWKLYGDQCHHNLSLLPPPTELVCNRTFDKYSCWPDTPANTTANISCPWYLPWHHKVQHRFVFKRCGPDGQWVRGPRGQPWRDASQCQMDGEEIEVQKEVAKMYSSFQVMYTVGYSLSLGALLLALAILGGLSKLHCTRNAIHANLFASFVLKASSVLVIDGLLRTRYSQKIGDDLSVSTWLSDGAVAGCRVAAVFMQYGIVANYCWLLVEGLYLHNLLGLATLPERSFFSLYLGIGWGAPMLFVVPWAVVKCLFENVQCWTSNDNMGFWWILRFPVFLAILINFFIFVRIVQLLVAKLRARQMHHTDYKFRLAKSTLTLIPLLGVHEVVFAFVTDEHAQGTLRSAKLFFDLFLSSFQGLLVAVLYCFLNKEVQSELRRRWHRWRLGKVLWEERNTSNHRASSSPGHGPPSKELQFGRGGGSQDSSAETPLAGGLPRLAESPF
Procedure: Upon stimulation by a specific agonist, GCG-R activates the intracellular adenylate cyclase signaling pathway, resulting in an increase in cAMP levels and ultimately leading to insulin production and secretion. A cell line stably transfected with GCG-R was stimulated with test compounds, thereby rapidly increasing intracellular cAMP levels. The relative luminescence units (RLU) of cells stimulated at various concentrations were measured by a chemiluminescence method, and the EC50 value of the agonist was calculated accordingly. This activity assay method is currently a commonly used method for evaluating GCG receptor agonist activity both domestically and internationally.
A CHO-K1 cell line stably expressing GCG-R was used. The stable cells were stimulated with agonists at different concentrations, and the relative luminescence units after stimulation at each concentration were measured to calculate the EC50 value of the agonist.

[3] = molecular target: T3, GIPR (Homo sapiens, UniProt P48546); experiment: GIP activity test (cAMP, chemiluminescence)
T3 construct: expressed in transfected cells; host or cells: CHO-K1
T3 sequence (P48546 22-466): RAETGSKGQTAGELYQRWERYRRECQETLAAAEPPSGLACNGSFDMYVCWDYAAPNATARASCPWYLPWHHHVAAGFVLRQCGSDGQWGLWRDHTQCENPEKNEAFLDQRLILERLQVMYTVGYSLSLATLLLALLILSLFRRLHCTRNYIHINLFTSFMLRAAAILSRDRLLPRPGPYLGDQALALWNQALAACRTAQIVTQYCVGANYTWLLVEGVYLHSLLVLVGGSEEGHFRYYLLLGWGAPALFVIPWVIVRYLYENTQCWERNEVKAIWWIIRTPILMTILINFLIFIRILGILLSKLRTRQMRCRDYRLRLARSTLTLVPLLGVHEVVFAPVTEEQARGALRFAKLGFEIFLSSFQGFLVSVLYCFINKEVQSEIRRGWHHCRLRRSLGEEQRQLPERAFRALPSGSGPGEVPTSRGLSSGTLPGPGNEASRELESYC
Procedure: as §1, with “agonist, GIPR” for “agonist, GLP-1R”, “with GIPR” for “with GLP-1R”, “activity assay” for “activity test”, “evaluating GIP” for “evaluating GLP-1”, “expressing GIPR” for “expressing GLP-1R”

T1 sequence (P43220 24-463, species assumed): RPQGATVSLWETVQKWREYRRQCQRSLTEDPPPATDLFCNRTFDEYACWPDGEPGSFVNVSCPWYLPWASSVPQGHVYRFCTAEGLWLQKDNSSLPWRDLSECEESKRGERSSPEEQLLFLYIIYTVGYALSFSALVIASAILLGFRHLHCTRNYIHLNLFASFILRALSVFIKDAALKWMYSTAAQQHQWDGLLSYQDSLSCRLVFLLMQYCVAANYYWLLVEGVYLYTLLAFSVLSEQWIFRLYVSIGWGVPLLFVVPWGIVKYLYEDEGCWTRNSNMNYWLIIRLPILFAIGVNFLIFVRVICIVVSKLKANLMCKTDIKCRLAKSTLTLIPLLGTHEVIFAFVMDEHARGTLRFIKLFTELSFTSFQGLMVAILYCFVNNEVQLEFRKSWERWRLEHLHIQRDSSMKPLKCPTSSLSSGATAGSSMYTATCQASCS

SMILES: CC[C@H](C)[C@H](NC(=O)[C@H](Cc1ccccc1)NC(=O)[C@H](C)NC(=O)C(C)(C)NC(=O)[C@H](CCC(N)=O)NC(=O)[C@H](C)NC(=O)[C@H](CCCCNC(=O)COCCOCCNC(=O)CC[C@H](NC(=O)CCCCCCCCCCCCCCCCCCC(=O)O)C(=O)O)NC(=O)[C@H](CCCCN)NC(=O)[C@H](CC(=O)O)NC(=O)[C@H](CC(C)C)NC(=O)[C@](C)(CC(C)C)NC(=O)[C@@H](NC(=O)[C@H](CO)NC(=O)[C@H](Cc1ccc(O)cc1)NC(=O)[C@H](CC(=O)O)NC(=O)[C@H](CO)NC(=O)[C@@H](NC(=O)[C@H](Cc1ccccc1)NC(=O)[C@@H](NC(=O)CNC(=O)[C@H](CCC(N)=O)NC(=O)C(C)(C)NC(=O)[C@@H](N)Cc1ccc(O)cc1)[C@@H](C)O)[C@@H](C)O)[C@@H](C)CC)C(=O)N[C@@H](CCC(=O)O)C(=O)N[C@@H](Cc1ccc(O)cc1)C(=O)N[C@@H](CC(C)C)C(=O)N[C@@H](CC(C)C)C(=O)N[C@@H](CCC(=O)O)C(=O)NCC(=O)NCC(=O)N1CCC[C@H]1C(=O)N[C@@H](CO)C(=O)N[C@@H](CO)C(=O)NCC(=O)N[C@@H](C)C(=O)N1CCC[C@H]1C(=O)N1CCC[C@H]1C(=O)N1CCC[C@H]1C(=O)N[C@@H](CO)C(N)=O [retatrutide, Retatrutide, reference compound]
- EC50 ([1]; CHO-K1 cell line stably expressing GLP-1R, cAMP, relative luminescence units, read-out: GLP-1 [EC50(pmol)]): 0.046 nM
- EC50 ([2]; CHO-K1 cell line stably expressing GCG-R, cAMP, relative luminescence units, read-out: GCG [EC50(pmol)]): 0.523 nM
- EC50 ([3]; CHO-K1 cell line stably expressing GIPR, cAMP, relative luminescence units, read-out: GIP [EC50(pmol)]): 0.0342 nM

SMILES: CC[C@H](C)[C@H](NC(=O)[C@H](Cc1ccccc1)NC(=O)[C@H](C)NC(=O)C(C)(C)NC(=O)[C@H](CCC(N)=O)NC(=O)[C@H](C)NC(=O)[C@H](CCCCNC(=O)COCCOCCNC(=O)COCCOCCNC(=O)CC[C@H](NC(=O)CCCCCCCCCCCCCCCCCCC(=O)O)C(=O)O)NC(=O)[C@H](CCCCN)NC(=O)[C@H](CC(=O)O)NC(=O)[C@H](CC(C)C)NC(=O)C(C)(CC(C)C)NC(=O)[C@@H](NC(=O)[C@H](CO)NC(=O)[C@H](Cc1ccc(O)cc1)NC(=O)[C@H](CC(=O)O)NC(=O)[C@H](CO)NC(=O)[C@@H](NC(=O)C(C)(Cc1ccccc1F)NC(=O)[C@@H](NC(=O)CNC(=O)[C@H](CCC(N)=O)NC(=O)C(C)(C)NC(=O)[C@@H](N)Cc1ccc(O)cc1)[C@@H](C)O)[C@@H](C)O)[C@@H](C)CC)C(=O)N[C@@H](CCC(=O)O)C(=O)N[C@@H](Cc1ccc(O)cc1)C(=O)N[C@@H](CC(C)C)C(=O)N[C@@H](CC(C)C)C(=O)N[C@@H](CCC(=O)O)C(=O)NCCCCC(=O)N1CCC[C@H]1C(=O)N[C@@H](CO)C(=O)N[C@@H](CO)C(=O)NCC(=O)N[C@@H](C)C(=O)N1CCC[C@H]1C(=O)N1CCC[C@H]1C(=O)N1CCC[C@H]1C(=O)N[C@@H](CO)C(N)=O (stereo partly drawn) [Compound 11]
- EC50 [1]: 0.0487 nM
- EC50 [2]: 0.174 nM
- EC50 [3]: 0.0253 nM

SMILES: CC[C@H](C)[C@H](NC(=O)[C@H](Cc1ccccc1)NC(=O)[C@H](C)NC(=O)C(C)(C)NC(=O)[C@H](CCC(N)=O)NC(=O)[C@H](C)NC(=O)[C@H](CCCCNC(=O)COCCOCCNC(=O)CC[C@H](NC(=O)CCCCCCCCCCCCCCCCCCC(=O)O)C(=O)O)NC(=O)[C@H](CCCCN)NC(=O)[C@H](CC(=O)O)NC(=O)[C@H](CC(C)C)NC(=O)C(C)(CC(C)C)NC(=O)[C@@H](NC(=O)[C@H](CO)NC(=O)[C@H](Cc1ccc(O)cc1)NC(=O)[C@H](CC(=O)O)NC(=O)[C@H](CO)NC(=O)[C@@H](NC(=O)C(C)(Cc1ccccc1)NC(=O)[C@@H](NC(=O)CNC(=O)[C@H](CCC(N)=O)NC(=O)C(C)(C)NC(=O)[C@@H](N)Cc1ccc(O)cc1)[C@@H](C)O)[C@@H](C)O)[C@@H](C)CC)C(=O)N[C@@H](CCC(=O)O)C(=O)N[C@@H](Cc1ccc(O)cc1)C(=O)N[C@@H](CC(C)C)C(=O)N[C@@H](CC(C)C)C(=O)N[C@@H](CCC(=O)O)C(=O)NCCCCC(=O)N1CCC[C@H]1C(=O)N[C@@H](CO)C(=O)N[C@@H](CO)C(=O)NCC(=O)N[C@@H](C)C(=O)N1CCC[C@H]1C(=O)N1CCC[C@H]1C(=O)N1CCC[C@H]1C(=O)N[C@@H](CO)C(N)=O (stereo partly drawn) [Compound 1]
- EC50 [1]: 0.045 nM
- EC50 [2]: 0.271 nM
- EC50 [3]: 0.0244 nM

SMILES: CC[C@H](C)[C@H](NC(=O)[C@H](Cc1ccccc1)NC(=O)[C@H](C)NC(=O)C(C)(C)NC(=O)[C@H](CCC(N)=O)NC(=O)[C@H](C)NC(=O)[C@H](CCCCNC(=O)COCCOCCOCCOCCOCCNC(=O)CC[C@H](NC(=O)CCCCCCCCCCCCCCCCCCC(=O)O)C(=O)O)NC(=O)[C@H](CCCCN)NC(=O)[C@H](CC(=O)O)NC(=O)[C@H](CC(C)C)NC(=O)C(C)(CC(C)C)NC(=O)[C@@H](NC(=O)[C@H](CO)NC(=O)[C@H](Cc1ccc(O)cc1)NC(=O)[C@H](CC(=O)O)NC(=O)[C@H](CO)NC(=O)[C@@H](NC(=O)C(C)(Cc1ccccc1)NC(=O)[C@@H](NC(=O)CNC(=O)[C@H](CCC(N)=O)NC(=O)C(C)(C)NC(=O)[C@@H](N)Cc1ccc(O)cc1)[C@@H](C)O)[C@@H](C)O)[C@@H](C)CC)C(=O)N[C@@H](CCC(=O)O)C(=O)N[C@@H](Cc1ccc(O)cc1)C(=O)N[C@@H](CC(C)C)C(=O)N[C@@H](CC(C)C)C(=O)N[C@@H](CCC(=O)O)C(=O)NCCCCC(=O)N1CCC[C@H]1C(=O)N[C@@H](CO)C(=O)N[C@@H](CO)C(=O)NCC(=O)N[C@@H](C)C(=O)N1CCC[C@H]1C(=O)N1CCC[C@H]1C(=O)N1CCC[C@H]1C(=O)N[C@@H](CO)C(N)=O (stereo partly drawn) [Compound 10]
- EC50 [1]: 0.0494 nM
- EC50 [2]: 0.299 nM
- EC50 [3]: 0.0256 nM

SMILES: CC[C@H](C)[C@H](NC(=O)[C@H](Cc1ccccc1)NC(=O)[C@H](C)NC(=O)C(C)(C)NC(=O)[C@H](CCC(N)=O)NC(=O)[C@H](C)NC(=O)[C@H](CCCCNC(=O)COCCOCCOCCOCCOCCNC(=O)CC[C@H](NC(=O)CCCCCCCCCCCCCCCCCCC(=O)O)C(=O)O)NC(=O)[C@H](CCCCN)NC(=O)[C@H](CC(=O)O)NC(=O)[C@H](CC(C)C)NC(=O)C(C)(CC(C)C)NC(=O)[C@@H](NC(=O)[C@H](CO)NC(=O)[C@H](Cc1ccc(O)cc1)NC(=O)[C@H](CC(=O)O)NC(=O)[C@H](CO)NC(=O)[C@@H](NC(=O)C(C)(Cc1ccccc1F)NC(=O)[C@@H](NC(=O)CNC(=O)[C@H](CCC(N)=O)NC(=O)C(C)(C)NC(=O)[C@@H](N)Cc1ccc(O)cc1)[C@@H](C)O)[C@@H](C)O)[C@@H](C)CC)C(=O)N[C@@H](CCC(=O)O)C(=O)N[C@@H](Cc1ccc(O)cc1)C(=O)N[C@@H](CC(C)C)C(=O)N[C@@H](CC(C)C)C(=O)N[C@@H](CCC(=O)O)C(=O)NCCCCC(=O)N1CCC[C@H]1C(=O)N[C@@H](CO)C(=O)N[C@@H](CO)C(=O)NCC(=O)N[C@@H](C)C(=O)N1CCC[C@H]1C(=O)N1CCC[C@H]1C(=O)N1CCC[C@H]1C(=O)N[C@@H](CO)C(N)=O (stereo partly drawn) [Compound 12]
- EC50 [1]: 0.0469 nM
- EC50 [2]: 0.165 nM
- EC50 [3]: 0.0243 nM

From patent EP4806910A1, “TRI-AGONIST COMPOUND” (priority 2023, dated 2025)
